Data on 14 compounds can be found in ChEMBL document CHEMBL1129152, “Synthesis of constrained thiorphan analogs as inhibitors of neutral endopeptidase” (Bioorg Med Chem Lett, 1996).

For this experiment, the target named is T1, Neprilysin (Rattus norvegicus, UniProt P07861).
T1 sequence (P07861 whole entry): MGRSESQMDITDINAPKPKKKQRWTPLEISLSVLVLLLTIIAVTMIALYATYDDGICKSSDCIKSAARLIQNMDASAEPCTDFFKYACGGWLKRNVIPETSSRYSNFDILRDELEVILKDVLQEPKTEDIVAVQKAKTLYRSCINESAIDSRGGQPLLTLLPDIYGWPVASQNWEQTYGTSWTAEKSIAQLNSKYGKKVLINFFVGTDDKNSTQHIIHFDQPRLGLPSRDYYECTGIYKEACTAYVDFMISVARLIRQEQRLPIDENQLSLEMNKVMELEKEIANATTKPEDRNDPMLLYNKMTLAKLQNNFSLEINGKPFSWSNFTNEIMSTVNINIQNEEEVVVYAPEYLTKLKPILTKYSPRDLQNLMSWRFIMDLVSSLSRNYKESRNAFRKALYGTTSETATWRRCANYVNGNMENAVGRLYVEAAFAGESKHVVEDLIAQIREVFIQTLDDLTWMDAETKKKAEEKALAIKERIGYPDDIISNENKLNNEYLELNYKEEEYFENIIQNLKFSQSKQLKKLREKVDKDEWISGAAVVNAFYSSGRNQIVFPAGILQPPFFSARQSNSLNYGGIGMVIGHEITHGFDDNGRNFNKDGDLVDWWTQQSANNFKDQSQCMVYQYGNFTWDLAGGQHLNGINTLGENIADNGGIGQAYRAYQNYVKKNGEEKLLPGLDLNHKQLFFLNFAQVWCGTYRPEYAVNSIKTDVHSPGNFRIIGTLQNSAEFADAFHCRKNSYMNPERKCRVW
The experiment can be described thus: Inhibition of neutral endopeptidase (NEP).

For orientation: Ki means a measure of affinity in units of concentration, obtained from inhibition or displacement. Lower therefore signals a stronger hold on the target. `O=C(O)[C@@H]1CCCC2c3ccccc3C[C@@H](CS)C(=O)N21` (some centres undefined) had a Ki of 45 nM.
For `C[C@H](NC(=O)C1(CS)CCc2ccccc2C1)C(=O)OCc1ccccc1` (some centres undefined), the Ki came out at 0.3 nM.
Take `O=C(OCc1ccccc1)[C@H](Cc1ccc(O)cc1)NC(=O)C1(CS)CCc2ccccc2C1` (some centres undefined): the Ki was found to be 0.5 nM.
`O=C(CNC(=O)C1(CS)CCc2ccccc2C1)OCc1ccccc1` (centres undefined) displayed a Ki of 0.4 nM.
`O=C(CNC(=O)C1(CS)Cc2ccccc2C1)OCc1ccccc1` had a Ki of 10 nM.
For the compound `CC(C)[C@H](NC(=O)C1(CS)CCc2ccccc2C1)C(=O)OCc1ccccc1` (some centres undefined), affinity was put at a Ki of 2 nM.
Compound `O=C(NCc1ccc2c(c1)OCO2)C1(CS)CCc2ccccc2C1` (centres undefined) gave a Ki of 14 nM. Compared with the last compound, the Ki is about 7-fold higher.
To `O=C(O)C1CCC(NC(=O)C2(CS)CCc3ccccc3C2)CC1` (centres undefined) belongs 0.6 nM; to `O=C(CS)N[C@H]1Cc2ccccc2C2CCC[C@@H](C(=O)O)N2C1=O` (some centres undefined), 5 nM; to `COC(=O)[C@H](Cc1ccccc1)NC(=O)C1(CS)CCc2ccccc2C1` (some centres undefined), 4 nM.
Compound `COC(=O)CCNC(=O)C1(CS)CCc2ccccc2C1` (centres undefined) displayed a Ki of 0.2 nM.
`COC(=O)[C@H](CC(C)C)NC(=O)C1(CS)CCc2ccccc2C1` (some centres undefined): the affinity, expressed as Ki, was 7 nM.
For the compound `O=C(O)[C@@H]1CCCC2c3ccccc3C[C@H](CS)C(=O)N21` (some centres undefined), the inhibition constant Ki is over 300 nM.
To `O=C(O)CCCCCCNC(=O)C1(CS)CCc2ccccc2C1` (centres undefined) belongs 0.6 nM.
